# Measured values taken from patent US20240300932A1, “N-PHENYLIMINE DERIVATIVE AND PREPARATION METHOD AND USE THEREOF” (Guizhou University, priority 2023, published 2024).
# Tests used:
# [1] = test system: Abutilon theophrasti; assay: Post-emergence herbicidal activity test (stem and leaf spray, pot culture); type: in vivo; details: 3 weeks after spraying
# In short: (§1)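 Greenhouse pot-grown weeds (loam, pH 7) sprayed post-emergence at 2- to 3-leaf stage with acetone/Tween 80 formulation plus 1.5 liters/ha methyl oleate, at 10, 5 and 2.5 g/mu. Fresh-weight growth control rated 3 weeks later on 0–5 grade scale.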
# [2] = test system: Amaranthus retroflexus; assay: as above; type: in vivo; details: 3 weeks after spraying
# In short: as §1
# [3] = test system: Echinochloa crusgalli; assay: as above; type: in vivo; details: 3 weeks after spraying
# In short: as §1
# [4] = test system: Portulaca oleracea; assay: as above; type: in vivo; details: 3 weeks after spraying
# In short: as §1
# [5] = test system: Setaria viridis; assay: as above; type: in vivo; details: 3 weeks after spraying
# In short: as §1
# [6] = test system: Trifoliumre pensL.; assay: Post-emergence herbicidal activity test (stem and leaf spray, pot culture); type: in vivo; details: 3 weeks after spraying
# In short: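 Rates of 10, 5 and 2.5 g/mu were applied in a single spray-tower treatment to 2–3-leaf plants, thinned to 10 per pot. Formulation: acetone solution, Tween 80, 1.5 L/ha methyl oleate synergist. Weed response assessed after 3 further greenhouse weeks; mean of three experiments.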
melting point [°C],Compound,"Post-emergence herbicidal activity, A. theophrasti (grade) ([1]; dosage 10 g/mu)","Post-emergence herbicidal activity, A. retroflexus (grade) ([2]; dosage 10 g/mu)","Post-emergence herbicidal activity, E. crusgalli (grade) ([3]; dosage 10 g/mu)","Post-emergence herbicidal activity, P. oleracea (grade) ([4]; dosage 10 g/mu)","Post-emergence herbicidal activity, S. viridis (grade) ([5]; dosage 10 g/mu)","Post-emergence herbicidal activity, Trifoliumre pensL. (grade) ([6]; dosage 10 g/mu)","Post-emergence herbicidal activity, A. theophrasti (grade) ([1]; dosage 2.5 g/mu)","Post-emergence herbicidal activity, A. theophrasti (grade) ([1]; dosage 5 g/mu)","Post-emergence herbicidal activity, A. retroflexus (grade) ([2]; dosage 2.5 g/mu)","Post-emergence herbicidal activity, A. retroflexus (grade) ([2]; dosage 5 g/mu)","Post-emergence herbicidal activity, E. crusgalli (grade) ([3]; dosage 2.5 g/mu)","Post-emergence herbicidal activity, E. crusgalli (grade) ([3]; dosage 5 g/mu)","Post-emergence herbicidal activity, P. oleracea (grade) ([4]; dosage 2.5 g/mu)","Post-emergence herbicidal activity, P. oleracea (grade) ([4]; dosage 5 g/mu)","Post-emergence herbicidal activity, S. viridis (grade) ([5]; dosage 2.5 g/mu)","Post-emergence herbicidal activity, S. viridis (grade) ([5]; dosage 5 g/mu)","Post-emergence herbicidal activity, Trifoliumre pensL. (grade) ([6]; dosage 2.5 g/mu)","Post-emergence herbicidal activity, Trifoliumre pensL. (grade) ([6]; dosage 5 g/mu)"
155 to 157,"CC(=O)Nc1cc(N2C(=O)C3=C(CCCC3)C2=O)c(F)cc1Cl [Compound D1, N-(2-chloro-5-(1,3-dioxo-1,3,4,5,6,7-hexahydro-2H-isoindole-2-yl)-4-fluorophenyl)acetamide]",5 (Grade 5: the growth control rate is greater than or equal to 85%),5 (Grade 5: the growth control rate is greater than or equal to 85%),3 (Grade 3: the growth control rate is greater than or equal to 40% and less than 60%),5 (Grade 5: the growth control rate is greater than or equal to 85%),4 (Grade 4: the growth control rate is greater than or equal to 60% and less than 85%),5 (Grade 5: the growth control rate is greater than or equal to 85%),–,–,–,–,–,–,–,–,–,–,–,–
161 to 167,"Cc1ccccc1-c1noc(COc2cc(N3C(=O)C4=C(CCCC4)C3=O)c(F)cc2Cl)n1 [Compound A2, 2-(4-chloro-2-fluoro-5-((3-(2-tolyl)-1,2,4-oxadiazole-5-yl)methoxy)phenyl)-4,5,6,7-tetrahydro-1H-isoindole-1,3(2H)-dione]",5 (Grade 5: the growth control rate is greater than or equal to 85%),5 (Grade 5: the growth control rate is greater than or equal to 85%),3 (Grade 3: the growth control rate is greater than or equal to 40% and less than 60%),5 (Grade 5: the growth control rate is greater than or equal to 85%),4 (Grade 4: the growth control rate is greater than or equal to 60% and less than 85%),5 (Grade 5: the growth control rate is greater than or equal to 85%),5 (Grade 5: the growth control rate is greater than or equal to 85%),5 (Grade 5: the growth control rate is greater than or equal to 85%),5 (Grade 5: the growth control rate is greater than or equal to 85%),5 (Grade 5: the growth control rate is greater than or equal to 85%),1 (Grade 1: the growth control rate is greater than or equal to 5% and less than 20%),2 (Grade 2: the growth control rate is greater than or equal to 20% and less than 40%),4 (Grade 4: the growth control rate is greater than or equal to 60% and less than 85%),5 (Grade 5: the growth control rate is greater than or equal to 85%),2 (Grade 2: the growth control rate is greater than or equal to 20% and less than 40%),3 (Grade 3: the growth control rate is greater than or equal to 40% and less than 60%),4 (Grade 4: the growth control rate is greater than or equal to 60% and less than 85%),5 (Grade 5: the growth control rate is greater than or equal to 85%)
124 to 131,"O=C(COc1cc(N2C(=O)C3=C(CCCC3)C2=O)c(F)cc1Cl)c1ccccc1 [Compound C1, 2-(4-chloro-2-fluoro-5-(2-oxo-2-phenylethoxy)phenyl)-4,5,6,7-tetrahydro-1H-isoindole-1,3(2H)-dione]",5 (Grade 5: the growth control rate is greater than or equal to 85%),5 (Grade 5: the growth control rate is greater than or equal to 85%),3 (Grade 3: the growth control rate is greater than or equal to 40% and less than 60%),5 (Grade 5: the growth control rate is greater than or equal to 85%),4 (Grade 4: the growth control rate is greater than or equal to 60% and less than 85%),5 (Grade 5: the growth control rate is greater than or equal to 85%),5 (Grade 5: the growth control rate is greater than or equal to 85%),5 (Grade 5: the growth control rate is greater than or equal to 85%),5 (Grade 5: the growth control rate is greater than or equal to 85%),5 (Grade 5: the growth control rate is greater than or equal to 85%),1 (Grade 1: the growth control rate is greater than or equal to 5% and less than 20%),2 (Grade 2: the growth control rate is greater than or equal to 20% and less than 40%),5 (Grade 5: the growth control rate is greater than or equal to 85%),5 (Grade 5: the growth control rate is greater than or equal to 85%),2 (Grade 2: the growth control rate is greater than or equal to 20% and less than 40%),3 (Grade 3: the growth control rate is greater than or equal to 40% and less than 60%),5 (Grade 5: the growth control rate is greater than or equal to 85%),5 (Grade 5: the growth control rate is greater than or equal to 85%)
